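Test compounds were applied to cells in 96-well plates for 48 hours at 5 doses. GI50 is the concentration that inhibits growth by half.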 Activity calls are given as the source filed them. Cut-off read from the data, not from the text of the source: active = GI50 up to about 1.1 µM and inactive = higher.
Columns and labels:
Assay in all cases: DTP human tumour cell line panel, 48 h
NCI-H460 = test system: NCI-H460
SF-268 = test system: SF-268
NCI-H23 = test system: NCI-H23
A498 = test system: A498
SW-620 = test system: SW-620
HOP-62 = test system: HOP-62
SNB-19 = test system: SNB-19
786-0 = test system: 786-0
SF-295 = test system: SF-295
KM12 = test system: KM12
SR = test system: SR
HT-29 = test system: HT-29
OVCAR-5 = test system: OVCAR-5
LOX IMVI = test system: LOX IMVI
COLO 205 = test system: COLO 205
UACC-257 = test system: UACC-257
SN12C = test system: SN12C
CAKI-1 = test system: CAKI-1

Measured: GI50

CC(=O)OC1CC2C(C)(C)C(=O)C=C[C@]2(C)C2CCC3(C)C(c4ccoc4)[C@@H](O)[C@H]4O[C@]43[C@]12C (stereo partly drawn)
inactive: NCI-H460 19.3 µM | SF-268 24.5 µM | NCI-H23 18.1 µM | A498 29.6 µM | SW-620 18.9 µM | HOP-62 22.7 µM | SNB-19 24 µM | 786-0 17.5 µM | SF-295 23.3 µM | KM12 19.2 µM | SR 16.1 µM | HT-29 21.7 µM | OVCAR-5 25.9 µM | LOX IMVI 16.9 µM | COLO 205 19.8 µM | UACC-257 21.4 µM | SN12C 18.6 µM | CAKI-1 22 µM

CCc1cccc(C(C)C)c1NC(=O)C(=O)C(C(=O)C(=O)OC)c1nc2ccccc2nc1O (stereo not drawn)
inactive: NCI-H460 > 100 µM | SF-268 > 100 µM | NCI-H23 > 100 µM | A498 > 100 µM | SW-620 > 100 µM | SNB-19 > 100 µM | 786-0 > 100 µM | SF-295 > 100 µM | KM12 > 100 µM | SR > 100 µM | HT-29 > 100 µM | OVCAR-5 > 100 µM | LOX IMVI > 100 µM | COLO 205 > 100 µM | UACC-257 > 100 µM | SN12C > 100 µM | CAKI-1 > 100 µM

COc1cc2c(cc1OC)C1C=NC(C(=O)O)(C2)c2ccccc21 (stereo not drawn)
inactive: NCI-H460 > 100 µM | SF-268 > 100 µM | NCI-H23 > 100 µM | A498 > 100 µM | SW-620 > 100 µM | HOP-62 > 100 µM | SNB-19 > 100 µM | 786-0 > 100 µM | SF-295 > 100 µM | KM12 > 100 µM | SR > 100 µM | HT-29 > 100 µM | OVCAR-5 > 100 µM | LOX IMVI > 100 µM | COLO 205 > 100 µM | UACC-257 > 100 µM | SN12C > 100 µM | CAKI-1 > 100 µM

N#C/C(=C\c1cccc(Cl)c1Cl)c1ccccc1
inactive: NCI-H460 58.9 µM | SF-268 58.1 µM | NCI-H23 40.8 µM | A498 34.6 µM | SW-620 > 53 µM | HOP-62 37 µM | SNB-19 > 49.3 µM | 786-0 37.6 µM | SF-295 38.4 µM | KM12 > 82.4 µM | SR > 38.1 µM | HT-29 > 89.5 µM | OVCAR-5 > 100 µM | LOX IMVI > 75.9 µM | COLO 205 > 100 µM | UACC-257 > 100 µM | SN12C 49.1 µM | CAKI-1 40.1 µM

CC(C)N(C(=O)C12C3C4C5C3C1(C(=O)N(C(C)C)C(C)C)C5C42)C(C)C (stereo not drawn)
inactive: NCI-H460 > 56.8 µM | SF-268 > 100 µM | NCI-H23 > 100 µM | A498 > 100 µM | SW-620 > 52.4 µM | HOP-62 > 100 µM | SNB-19 > 100 µM | 786-0 > 100 µM | SF-295 > 100 µM | KM12 > 100 µM | SR 19.1 µM | HT-29 > 100 µM | OVCAR-5 > 100 µM | LOX IMVI > 46.8 µM | COLO 205 > 44.5 µM | UACC-257 > 100 µM | SN12C > 100 µM | CAKI-1 > 100 µM

CCOC(=O)C1(C/C=C(/C)Cl)CCCC1=O (stereo not drawn)
inactive: NCI-H460 > 100 µM | SF-268 > 100 µM | NCI-H23 > 100 µM | A498 > 100 µM | HOP-62 > 100 µM | SNB-19 > 100 µM | 786-0 > 100 µM | SF-295 > 100 µM | KM12 > 100 µM | SR 20.7 µM | HT-29 > 100 µM | OVCAR-5 > 100 µM | LOX IMVI > 100 µM | COLO 205 > 100 µM | UACC-257 > 100 µM | SN12C > 100 µM | CAKI-1 > 100 µM

C/N=C(\N=c1/ss/c(=N\C)n1C)N(C)C.[O-][Cl+3]([O-])([O-])O
inactive: NCI-H460 > 100 µM | SF-268 > 100 µM | NCI-H23 54.6 µM | A498 29.2 µM | SW-620 > 100 µM | SNB-19 > 100 µM | 786-0 > 100 µM | SF-295 > 100 µM | KM12 > 100 µM | SR 70.8 µM | HT-29 > 100 µM | OVCAR-5 > 100 µM | LOX IMVI 45.9 µM | COLO 205 28.2 µM | UACC-257 97.3 µM | SN12C > 100 µM | CAKI-1 78.2 µM

CCOc1ccc(NC(=O)CC#N)cc1
inactive: NCI-H460 > 100 µM | SF-268 > 100 µM | NCI-H23 > 100 µM | A498 > 100 µM | SW-620 > 100 µM | HOP-62 > 100 µM | SNB-19 > 100 µM | 786-0 > 100 µM | SF-295 > 100 µM | KM12 > 100 µM | SR > 100 µM | HT-29 > 100 µM | OVCAR-5 > 100 µM | LOX IMVI > 100 µM | COLO 205 > 100 µM | UACC-257 > 100 µM | SN12C > 100 µM | CAKI-1 > 100 µM

Cc1nc2c3c(ccc2nc1O)C(=O)c1ccccc1C3=O
inactive: NCI-H460 37.2 µM | SF-268 15.6 µM | NCI-H23 66.7 µM | A498 20.3 µM | SW-620 56.2 µM | HOP-62 40.4 µM | SNB-19 > 100 µM | 786-0 > 100 µM | SF-295 > 100 µM | KM12 32.2 µM | SR > 100 µM | HT-29 > 100 µM | OVCAR-5 > 100 µM | LOX IMVI 41.6 µM | COLO 205 > 100 µM | UACC-257 > 100 µM | SN12C 42.2 µM | CAKI-1 25.3 µM

N/N=C1\C(=O)N(C2CCCCC2)C(=O)C1C(=O)NC1CCCCC1 (stereo not drawn)
inactive: NCI-H460 > 100 µM | SF-268 > 100 µM | NCI-H23 > 100 µM | A498 > 100 µM | SW-620 > 100 µM | HOP-62 > 100 µM | SNB-19 > 100 µM | 786-0 > 100 µM | SF-295 > 100 µM | KM12 > 100 µM | SR > 100 µM | HT-29 > 100 µM | OVCAR-5 > 100 µM | LOX IMVI > 100 µM | COLO 205 > 100 µM | UACC-257 87.9 µM | SN12C 31.6 µM | CAKI-1 > 100 µM

COC1=CC(=O)[C@H]2[C@H](C)C(c3ccccc3)[C@@]2(C)C1=O (stereo partly drawn)
inactive: NCI-H460 > 100 µM | SF-268 > 100 µM | NCI-H23 > 100 µM | A498 > 100 µM | SW-620 > 100 µM | HOP-62 > 100 µM | SNB-19 > 100 µM | 786-0 > 100 µM | SF-295 > 100 µM | KM12 > 100 µM | SR > 100 µM | HT-29 > 100 µM | OVCAR-5 > 100 µM | LOX IMVI > 100 µM | COLO 205 > 100 µM | CAKI-1 > 100 µM
